Literature values, collected in patent publication US4868155A, “Dipeptidyl 4-0-,6-0-acyl-2-amino-2-deoxy-D-glucose compositions and methods of use in AIDS-immunocompromised human hosts” (Merck & Co., Inc., priority 1987, dated 1989).
Where two headings read alike, the source gives them in different places.

What was measured:
AIDS related virus = settings: for clinical benefit (symptoms, immune function) in AIDS / ARC patients: clinical trials; for virus replication in humans: patients
[1] = in vivo
[2] = tested on: Mycobacterium avium intracellulare; settings: AIDS patients infected with Mycobacterium avium intracellulare
[3] = tested on: reverse transcriptase in several retroviruses; settings: in vitro

**Q.** With `Cc1ccc(C(=O)Nc2ccc(S(=O)(=O)O)c3cc(S(=O)(=O)O)cc(S(=O)(=O)O)c23)cc1NC(=O)c1cccc(NC(=O)Nc2cccc(C(=O)Nc3cc(C(=O)Nc4ccc(S(=O)(=O)O)c5cc(S(=O)(=O)O)cc(S(=O)(=O)O)c45)ccc3C)c2)c1` [Suramin] as the compound, how does the “clinical benefit (symptoms, immune function) in AIDS / ARC patients” value (AIDS related virus) read?
**A.** little or no evidence of clinical improvement or immunologic recovery

**Q.** With `Cc1cn([C@H]2C[C@H](N=[N+]=[N-])[C@@H](CO)O2)c(=O)[nH]c1=O` [Azidothymidine, 3' azido 3'-deoxythymidine] as the compound, how does the oral absorption [1] read?
**A.** Well absorbed orally

**Q.** With `CC(=O)Nc1ccc(C(=O)O)cc1.CC(=O)Nc1ccc(C(=O)O)cc1.CC(=O)Nc1ccc(C(=O)O)cc1.CC(O)CN(C)C.CC(O)CN(C)C.CC(O)CN(C)C.O=c1[nH]cnc2c1ncn2[C@@H]1O[C@H](CO)[C@@H](O)[C@H]1O` [Inosine granobex] as the compound, how does the “clinical benefit (symptoms, immune function) in AIDS / ARC patients” value (AIDS related virus) read?
**A.** improve immune function in ARC patients

**Q.** With `CO[C@H]1/C=C/O[C@@]2(C)Oc3c(C)c(O)c4c(c3C2=O)C2=NC3(CCN(CC(C)C)CC3)NC2=C(NC(=O)/C(C)=C\C=C\[C@H](C)[C@H](O)[C@@H](C)[C@@H](O)[C@@H](C)[C@H](OC(C)=O)[C@@H]1C)C4=O` [Ansamycin, rifabutin] as the compound, how does the “efficacy against opportunistic infection” value [2] read?
**A.** some efficacy

**Q.** What does the source list for `CC(C)(S)[C@@H](N)C(=O)O` [D Penicillamine, 3-mercapto D valine]?
**A.** virus replication in humans (AIDS related virus): Inhibits HIV reproduction in humans; T cell levels (13 AIDS patients with perpetually swollen glands): temporarily depressed T cell levels

**Q.** Which “toxicity / side effects” value (human, in vivo) does the source give for `O=C(O)P(=O)(O)O` [Foscarnet, trisodium phosphonoformate] here?
**A.** serious side effects

**Q.** Which results are given for “ammonium 21 tungsto 9 antimoniate [HPA-23]”?
**A.** inhibition of reverse transcriptase in several retroviruses [3]: Inhibits reverse transcriptase in several retroviruses in vitro; growth of HIV (HIV): some tendency to check the growth of HIV; clinical benefit (symptoms, immune function) in AIDS / ARC patients (AIDS related virus): no therapeutic benefit

**Q.** What does the source list for `CC(C)(N1CC1C#N)N1CC1C(N)=O` (stereo not shown) [Azimexon]?
**A.** clinical benefit (symptoms, immune function) in AIDS / ARC patients (AIDS related virus): improvements in symptoms and immune function in patients with ARC but not AIDS; toxicity / side effects (patients): mild hemolysis

**Q.** With α-Interferon as the compound, how does the “tumor regression in AIDS-related Kaposi's sarcoma” value (AIDS related virus; AIDS-related Kaposi's sarcoma cases) read?
**A.** induced tumor regression in some AIDS-related Kaposi's sarcoma cases

**Q.** What does the source list for `NC(=O)c1ncn([C@@H]2O[C@H](CO)[C@@H](O)[C@H]2O)n1` [Ribavirin, 1 8 D ribofuranosyl-1,2,4-triazole-3-carboxamide]?
**A.** clinical benefit (symptoms, immune function) in AIDS / ARC patients (AIDS related virus): improved immune function; virus replication in humans (AIDS related virus): inhibited viral replication; safety profile (human, in vivo): acceptable
